From US20190135857A1, “TR[…] HUMAN IMMUNODEFICIENCY VIRUS REPLICATION” (priority 2016, published 2019)

These compounds were tested on recombinant NL4-3 virus (nef section replaced with Renilla luciferase gene, Gag P373S) (assay: HIV Cell Culture Assay). Details: NL43.
Assay type: cell-based
Protocol: MT-2 cells and 293T cells were obtained from the NIH AIDS Research and Reference Reagent Program. MT-2 cells were propagated in RPMI 1640 media supplemented with 10% heat inactivated fetal bovine serum, […]. The 293T cells were propagated in DMEM media supplemented with 10% heat inactivated fetal bovine serum (FBS), 100 units/ml penicillin G and 100 μg/ml streptomycin. The proviral DNA clone of NL4-3 was obtained from the NIH AIDS Research and Reference Reagent Program. A recombinant NL4-3 virus, in which a section of the nef gene from NL4-3 was replaced with the Renilla luciferase gene, was used as a reference virus. In addition, residue Gag P373 was converted to P373S. Briefly, the recombinant virus was prepared by transfection of the altered proviral clone of NL4-3. Transfections were performed in 293T cells using LipofectAMINE PLUS from Invitrogen (Carlsbad, Calif.), according to manufacturer's instruction. The virus was titered in MT-2 cells using luciferase enzyme activity as a marker. Luciferase was quantitated using the Dual Luciferase kit from Promega (Madison, Wis.), with modifications to the manufacturer's protocol. The diluted Passive Lysis solution was pre-mixed with the re-suspended Luciferase Assay Reagent and the re-suspended Stop & Glo Substrate (2:1:1 ratio). Fifty (50) μL of the mixture was added to each aspirated well on assay plates and luciferase activity was measured immediately on a Wallac TriLux (Perkin-Elmer). Antiviral activities of inhibitors toward the recombinant virus were quantified by measuring luciferase activity in cells infected for 4-5 days with NLRluc recombinants in the presence serial dilutions of the inhibitor. Note that some of the data is provided in abbreviated exponential form such that, for example, 2.53E−3, is equivalent to 2.53×10^−3.

Structure (SMILES)	EC50 [nM]
CC(C)[C@@H]1CC[C@]2(NC(=O)NCCN(C)C)CC[C@]3(C)[C@H](CC[C@@H]4[C@@]5(C)CC[C@@H](c6ccc(C(=O)O)cc6)C(C)(C)[C@@H]5CC[C@]43C)[C@@H]12 (single isomer, unassigned) [Example B5]	5.16
CC(C)[C@@H]1CC[C@]2(NC(=O)NCCCN(C)C)CC[C@]3(C)[C@H](CC[C@@H]4[C@@]5(C)CC[C@@H](c6ccc(C(=O)O)cc6)C(C)(C)[C@@H]5CC[C@]43C)[C@@H]12 (single isomer, unassigned) [Example B6]	5.13
CC(C)[C@@H]1CC[C@]2(NC(=O)OCCN(C)C)CC[C@]3(C)[C@H](CC[C@@H]4[C@@]5(C)CC[C@@H](c6ccc(C(=O)O)cc6)C(C)(C)[C@@H]5CC[C@]43C)[C@@H]12 (single isomer, unassigned) [Example B7]	6.45
CC(C)[C@@H]1CC[C@]2(NC(=O)OCCCN(C)C)CC[C@]3(C)[C@H](CC[C@@H]4[C@@]5(C)CC[C@@H](c6ccc(C(=O)O)cc6)C(C)(C)[C@@H]5CC[C@]43C)[C@@H]12 (single isomer, unassigned) [Example B8]	4.49
CC(C)[C@@H]1CC[C@]2(NC(=O)CN(C)C)CC[C@]3(C)[C@H](CC[C@@H]4[C@@]5(C)CC[C@@H](c6ccc(C(=O)O)cc6)C(C)(C)[C@@H]5CC[C@]43C)[C@@H]12 (single isomer, unassigned) [Example B9]	10
CC(C)[C@@H]1CC[C@]2(NC(=O)CCN(C)C)CC[C@]3(C)[C@H](CC[C@@H]4[C@@]5(C)CC[C@@H](c6ccc(C(=O)O)cc6)C(C)(C)[C@@H]5CC[C@]43C)[C@@H]12 (single isomer, unassigned) [Example B10]	3.81
CC(C)[C@@H]1CC[C@]2(NC(=O)CCCN(C)C)CC[C@]3(C)[C@H](CC[C@@H]4[C@@]5(C)CC[C@@H](c6ccc(C(=O)O)cc6)C(C)(C)[C@@H]5CC[C@]43C)[C@@H]12 (single isomer, unassigned) [Example B11]	5.94
CC(C)[C@@H]1CC[C@]2(NCCN3C[C@@H]4C[C@H]3CS4(=O)=O)CC[C@]3(C)[C@H](CC[C@@H]4[C@@]5(C)CC[C@@H](c6ccc(C(=O)O)cc6)C(C)(C)[C@@H]5CC[C@]43C)[C@@H]12 (single isomer, unassigned) [Example B12]	0.605
CC(C)[C@@H]1CC[C@]2(C(=O)O)CC[C@]3(C)[C@H](CC[C@@H]4[C@@]5(C)CC[C@@H](c6ccc(C(=O)O)cc6)C(C)(C)[C@@H]5CC[C@]43C)[C@@H]12 [Example B1, (1S,3aS,5aR,5bR,7aS,9R,11aS,11bR,13aR,13bR)-9-(4-carboxyphenyl)-1-isopropyl-5a,5b,8,8,8,11a-pentamethylicosahydro-1H-cyclopenta[a]chrysene-3a-carboxylic acid]	10
CC(C)[C@@H]1CC[C@]2(C(=O)NCCN(C)C)CC[C@]3(C)[C@H](CC[C@@H]4[C@@]5(C)CC[C@@H](c6ccc(C(=O)O)cc6)C(C)(C)[C@@H]5CC[C@]43C)[C@@H]12 [Example B2, 4-((1S,3aS,5aR,5bR,7aS,9R,11aS,11bR,13aR,13bR)-3a-((2-(dimethylamino)ethyl)carbamoyl)-1-isopropyl-5a,5b,8,8,11a-pentamethylicosahydro-1H-cyclopenta[a]chrysen-9-yl)benzoic acid]	2.53
CC(C)[C@@H]1CC[C@]2(C(=O)NCCCN(C)C)CC[C@]3(C)[C@H](CC[C@@H]4[C@@]5(C)CC[C@@H](c6ccc(C(=O)O)cc6)C(C)(C)[C@@H]5CC[C@]43C)[C@@H]12 [Example B3, 4-((1S,3aS,5aR,5bR,7aS,9R,11aS,11bR,13aR,13bR)-3a-((3-(dimethylamino)propyl)carbamoyl)-1-isopropyl-5a,5b,8,8,11a-pentamethylicosahydro-1H-cyclopenta[a]chrysen-9-yl)benzoic acid]	2.33
CC(C)[C@@H]1CC[C@]2(N)CC[C@]3(C)[C@H](CC[C@@H]4[C@@]5(C)CC[C@@H](c6ccc(C(=O)O)cc6)C(C)(C)[C@@H]5CC[C@]43C)[C@@H]12 [Example B4, 4-((1S,3aS,5aR,5bR,7aS,9R,11aS,11bR,13aR,13bR)-3a-amino-1-isopropyl-5a,5b,8,8,11a-pentamethylicosahydro-1H-cyclopenta[a]chrysen-9-yl)benzoic acid]	4.53
CC(C)[C@@H]1CC[C@]2(NCCN3CCC(S(C)(=O)=O)CC3)CC[C@]3(C)[C@H](CC[C@@H]4[C@@]5(C)CC[C@@H](c6ccc(C(=O)O)cc6)C(C)(C)[C@@H]5CC[C@]43C)[C@@H]12 [Example B13, 4-((1S,3aS,5aR,5bR,7aS,9R,11aS,11bR,13aR,13bR)-1-isopropyl-5a,5b,8,8,11a-pentamethyl-3a-((2-(4-(methylsulfonyl)piperidin-1-yl)ethyl)amino)icosahydro-1H-cyclopenta[a]chrysen-9-yl)benzoic acid]	1.58
